Several values for one entry are separate records, joined by “and”; a condition that tells them apart may be missing. Identical values can stand only once.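 How tested: cells in 96-well plates exposed to compound for 48 hours at five concentrations. GI50: concentration for 50% inhibition of growth. TGI: total growth inhibition.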
How the values were obtained:
Assay in all cases: DTP human tumour cell line panel, 48 h
A498 renal = system: A498 renal
EKVX NSCLC = system: EKVX NSCLC
HL-60(TB) leukemia = system: HL-60(TB) leukemia
HOP-92 NSCLC = system: HOP-92 NSCLC
SK-OV-3 ovarian = system: SK-OV-3 ovarian
SN12C renal = system: SN12C renal
SW-620 colon = system: SW-620 colon
TK-10 renal = system: TK-10 renal
NCI/ADR-RES ovarian = system: NCI/ADR-RES ovarian
T-47D breast = system: T-47D breast

| SMILES | GI50 (A498 renal) | TGI (A498 renal) | GI50 (EKVX NSCLC) | TGI (EKVX NSCLC) | GI50 (HL-60(TB) leukemia) | TGI (HL-60(TB) leukemia) | GI50 (HOP-92 NSCLC) | TGI (HOP-92 NSCLC) | GI50 (SK-OV-3 ovarian) | TGI (SK-OV-3 ovarian) | GI50 (SN12C renal) | TGI (SN12C renal) | GI50 (SW-620 colon) | TGI (SW-620 colon) | GI50 (TK-10 renal) | TGI (TK-10 renal) | GI50 (NCI/ADR-RES ovarian) | TGI (NCI/ADR-RES ovarian) | TGI (T-47D breast) | GI50 (T-47D breast) |
| --- | --- | --- | --- | --- | --- | --- | --- | --- | --- | --- | --- | --- | --- | --- | --- | --- | --- | --- | --- | --- |
| CC(=O)[CH-]C(=O)c1ccccc1.CC(=O)[CH-]C(=O)c1ccccc1.CN(C)c1ccc([O-])cc1.CN(C)c1ccc([O-])cc1.Cl.[Ti+4] | 31.1 µM | > 100 µM | 24.6 µM | > 31.6 µM | 20.9 µM | > 31.6 µM | 14.9 µM | 27.5 µM | 17.1 µM | > 31.6 µM | 23.7 µM | > 31.6 µM | 18.5 µM | > 31.6 µM | 71.6 µM | > 100 µM |  |  |  |  |
| O=C(Nc1nc2ccc([N+](=O)[O-])cc2s1)C(=O)C(C1OC(=O)c2ccccc21)[N+](=O)[O-] (stereo not drawn) |  | 45 µM |  | > 100 µM |  | > 100 µM |  | 82.9 µM |  | > 100 µM |  | > 100 µM |  | > 100 µM |  | > 100 µM |  |  |  |  |
| Nc1ccccc1S(=O)(=O)N(CC(=O)O)c1ccccc1 |  | > 100 µM |  | > 100 µM |  | > 100 µM |  | > 100 µM |  | > 100 µM |  | > 100 µM |  | > 100 µM |  | > 100 µM |  |  |  |  |
| C=CCO[C@H]1CO[C@H]2[C@@H]1OC[C@@H]2Oc1ccc(Nc2ccnc(Nc3ccc(O[C@H]4CO[C@H]5[C@@H]4OC[C@@H]5OCC=C)c(Cl)c3)n2)cc1Cl |  |  | 1.69 µM | 3.15 µM | 1.62 µM | 3.78 µM | 1.66 µM | 3.3 µM | 16.8 µM | 31.2 µM | 1.68 µM | 3.33 µM | 1.77 µM | 3.29 µM | 1.86 µM | 3.63 µM | 1.78 µM | 3.85 µM |  |  |
| CCCCCCCCCCCCCC(=O)OC(/C=C/C(C)C)C(O)C(O)C(OC)C(=O)NC1CCCCN(C)C1=O (stereo not drawn) | > 49 µM | 32.5 µM and > 49 µM | 5.01 µM and 15.7 µM | 17.3 µM and > 49 µM |  | 5.49 µM and 10.4 µM and > 49 µM | > 49 µM | > 49 µM | > 49 µM | 11.5 µM and > 49 µM |  |  | > 49 µM | 6.06 µM and > 49 µM | > 49 µM | 32.5 µM and > 49 µM |  |  |  |  |
| CCC[CH2][Sn]([CH2]CCC)([S]c1cccc2cccnc12)[S]c1cccc2cccnc12 | 0.254 µM | 0.6 µM | 0.336 µM | 1.45 µM |  |  |  |  | 0.324 µM | 1.18 µM | 0.24 µM | 0.822 µM | 0.132 µM | 0.379 µM | 0.249 µM | 0.552 µM |  |  |  |  |
| COc1cc2c(c3oc4c(O)cccc4c(=O)c13)CC(C(C)(O)CO)O2 (stereo not drawn) |  |  |  | > 100 µM |  | > 100 µM |  | > 100 µM |  |  |  | > 100 µM |  | > 100 µM |  | > 100 µM |  | > 100 µM | > 100 µM |  |
| O=C(O)CCNCCCNCCC(=O)O |  | > 100 µM |  | > 100 µM |  | > 100 µM |  | > 100 µM |  | > 100 µM |  | > 100 µM |  | > 100 µM |  | > 100 µM |  |  |  |  |
| Cc1c(C(=O)CC(=O)C(=O)Nc2ccccc2C(F)(F)F)[n+](=O)c2ccccc2n1[O-] |  | > 100 µM |  | 49.4 µM |  | 66.2 µM |  | 60.1 µM |  | > 100 µM |  | 54.4 µM |  | 47 µM |  | > 100 µM |  |  |  |  |
| CO/C(=N\N=C\c1ccc(C(F)(F)F)cc1)c1ccncc1 |  |  |  | > 10 µM |  | > 10 µM |  | > 10 µM |  |  |  | > 10 µM |  | > 10 µM |  | > 10 µM |  | > 10 µM | > 10 µM |  |
| Cc1cc(-c2nc(C(=O)Nc3cc4oc(N5CCOCC5)nc4nc3N3CC[C@@H](O)C3)co2)ccn1 | 1.34 µM | 39.2 µM | > 100 µM | > 100 µM | 35.2 µM | > 100 µM |  |  | 16.6 µM | 66.9 µM | 26 µM | > 100 µM | 28.4 µM | > 100 µM | 26.7 µM | > 100 µM | > 100 µM | > 100 µM | > 100 µM | 22.1 µM |
| COC(=O)CC[N+]1=CCC(c2ccccc2)(c2ccccc2)O1 |  | > 100 µM |  | > 100 µM |  |  |  | > 100 µM |  | > 100 µM |  | > 100 µM |  | > 100 µM |  | > 100 µM |  |  | > 100 µM |  |
| COc1ccc2c(c1)sc1nc(-c3ccccc3)c(-c3cccc4ccccc34)n12 | 0.601 µM | > 30 µM | 1.61 µM | > 100 µM | 0.148 µM |  |  |  | 0.369 µM | 2.79 µM | 1.02 µM | > 100 µM | 0.346 µM | > 100 µM | 5.17 µM | > 100 µM | 0.47 µM | > 100 µM | > 62.2 µM | 4.38 µM |
| NS(=O)(=O)OC[C@@H]1C[C@@H](n2ccc3c(NC4CCc5ccccc54)ncnc32)C[C@@H]1O (stereo partly drawn) | 0.123 µM | 2.27 µM | 21.4 µM | > 100 µM | 0.214 µM | 14 µM |  |  | 9.36 µM | > 93.9 µM | 0.614 µM | > 100 µM | 3.34 µM | > 77.6 µM | 14.1 µM | > 100 µM | 68.8 µM | > 100 µM | 63.6 µM | 0.0607 µM |
| COc1ccccc1N1C(=O)C2c3[nH]c4ccccc4c3C3CCC(C(C)(C)C)CC3C2C1=O (stereo not drawn) |  | > 100 µM |  | > 100 µM |  | > 100 µM |  | > 100 µM |  | > 100 µM |  | > 100 µM |  | > 100 µM |  |  |  |  |  |  |
| CNC(=S)OCCC(C)CCCC(C)C (stereo not drawn) |  | 30 µM |  | 31.7 µM |  | 23.6 µM |  |  |  | 41.6 µM |  | 30.3 µM |  | 30.7 µM |  | 25.5 µM |  |  |  |  |
| CC1(C(=O)O)CCC[C@@]2(C)C1CC[C@@]1(C)c3cocc3CCC21 (stereo partly drawn) |  | > 100 µM |  | > 100 µM |  | > 100 µM |  | > 100 µM |  | > 100 µM |  | > 100 µM |  | > 100 µM |  | > 100 µM |  |  |  |  |
| Cc1cc(N(CCC#N)CCC#N)ccc1N=Nc1ccc(S(N)(=O)=O)cc1 |  | > 100 µM |  | > 100 µM |  | > 100 µM |  |  |  | > 100 µM |  | > 100 µM |  | > 100 µM |  | > 100 µM |  |  |  |  |
| NS(=O)(=O)c1ccc2c(c1)OCCOCCOCCOCCO2 |  | > 100 µM |  | > 100 µM |  | > 100 µM |  |  |  | > 100 µM |  | > 100 µM |  | > 100 µM |  | > 100 µM |  |  | > 100 µM |  |

Reference: PubChem BioAssay (NCI)
